Nine molecules from patent US12145947B2, “Pyrimidine based modulators and uses thereof” (Quanta Therapeutics, Inc., priority 2022, dated 2024) can be followed below.

Molecules are shown by their SMILES.

Assay [1] concerns the target T1, KRAS G12D/RAF1 (Homo sapiens, UniProt P01116, G12D).
T1 construct: His6-MBP (N, cleaved yes); made in house; host or cells: E. coli
Description: Protein-protein interaction (PPI) HTRF assay KRAS G12D/RAF1. Format: binding. As for the experimental part: Biotinylated KRAS wt and KRAS G12DNV proteins were expressed and purified in conditions similar to those previously reported (Tran, et al., 2021) (Zhang, et al., 2020). Briefly, KRAS (1-169) proteins were expressed in E. coli at 18° C. with an upstream TEV cleavage site (ENLFYQS (SEQ ID NO: 6)) followed an Avi tag sequence ([…] (SEQ ID NO: 7)). KRAS expression constructs contained both a His6 (SEQ ID NO: 8) and maltose-binding protein (MBP) tags at the N-terminus for Ni-NTA column purification prior to overnight TEV cleavage and MBP column purification. The avi-tagged NRAS expression construct contained both a His6 tag (SEQ ID NO: 8) and SUMO cleavage sige at the N-terminus for Ni-NTA column purification followed by His-ULPi digestion overnight. All avi-tagged RAS proteins were dialyzed into buffer containing ATP, biotin, and BirA followed by purification over a second Ni-NTA column and then run over a size exclusion HiLoad™ 26/600 Superdex™ column in 20 mM HEPES, pH 7.5, 300 mM NaCl, 5 mM MgCl2, and 1 mM TCEP. Fractions containing the protein of interest were pooled, concentrated, and confirmed by intact mass spectrometry. To prepare ‘GTP’ loaded KRAS and NRAS, biotinylated KRAS or NRAS was nucleotide exchanged from GDP-bound protein to GppNHp-bound (Jena Biosciences, NU-401-50) protein in the presence of alkaline phosphatase and excess GppNHp as previously described and the resulting nucleotide content was confirmed by HPLC reverse phase analytical chromatography (Donohue, et al., 2019) (Tran, et al., 2021).
His-tagged RAF1 (52-131) was similarly expressed in E. coli at 18° C. overnight with an upstream TEV cleavage site. His-tagged RAF1 expression construct contained both a His6 (SEQ ID NO: 8) and MBP tags at the N-terminus for Ni-NTA column purification followed by MBP-tagged TEV digestion overnight. RAF1 protein samples were further purified over a MBP column followed by a Ni-NTA column and a second MBP column. The fractions containing the protein of interest were pooled, concentrated, and further purified over a HiLoad™ 16/600 Superdex™ 75 pg size exclusion column into 20 mM HEPES, pH8.0, 200 mM NaCl, 5 mM TCEP.
When RAS proteins are in the active GTP-bound conformation, they bind the effector protein RAF1 at the N-terminus Ras-binding domain (RBD, residues 52-131) (Tran, et al., 2021). Homogenous time resolved fluorescence (HTRF) was used to monitor the interaction between wt or mutant KRAS and RAF1 or wt NRAS and RAFT. Compounds were assayed in the presence of KRAS G12D/V and RAF1 versus wt KRAS to assess activity against mutant and w.t. KRAS. Similarly, compounds were then assayed in the presence of w.t. NRAS and RAF1 to assess RAS isoform selectivity. In all assay formats, His-tagged RAF1 protein was incubated with the HTRF donor, anti-6His (“6His” disclosed as SEQ ID NO: 8) Tb Cryptate gold (Cisbio 61DB10RDF), and biotinylated RAS proteins were incubated with the HTRF acceptor, streptavidin-d2 (CisBio 610SADLA). The intensity of the fluorescence signal emitted is proportional to binding between the two proteins. The donor solution was prepared by mixing 16 nM His-tagged RAF1 in protein dilution buffer with 1:100 anti-6His (“6His” disclosed as SEQ ID NO: 8) Tb cryptate in PPI-Terbium detection buffer. 16 nM biotinylated RAS protein was diluted into protein dilution buffer (50 mM Tris-HCl pH 7.5, 150 mM NaCl, 0.1 mM MgCl2, 1 mM TCEP, 0.005% Tween20) and mixed with 1:2000 Streptavidin-d2 diluted in PPI-Terbium detection buffer (CisBio 61DBTORDF). 50× compound in DMSO was mixed with 16 nM KRAS-acceptor solution and incubated for 30 minutes at room temperature. After compound pre-incubation with KRAS, the RAF1 donor solution was added to the KRAS-acceptor solution and incubated for 1 hour at room temperature. The fluorescence signal emitted was monitored at 665 nm and 615 nm using an Envision multimode plate reader. […]

The target of assay [2] is T2, GST-tagged KRAS-G12D (2-169) (Homo sapiens, UniProt P01116, G12D).
T2 construct: GST-tagged KRAS-G12D (2-169, Reaction Biology, MSC-11-539); purchased Reaction Biology MSC-11-539 (KRAS G12D); MSC-11-502 (SOS1cat)
Description: Nucleotide exchange assay (NEA), SOS-mediated, HTRF, KRAS G12D. The settings on record: IC50 extracted at 30 min. Format: biochemical. An excerpt:
This activity is tightly regulated by GTPase activating proteins (GAPs) and guanine nucleotide exchange factors (GEFs). GEFs, such as SOS1/2, activate Ras proteins by exchanging GDP for GTP, thus returning Ras to its active conformation (Simanshu, Nissley, & McCormick, 2017). […] Homogenous time resolved fluorescence (HTRF) was used to detect SOS-mediated binding of a fluorescent GTP analog, GTP-DY-647P1 (Jena Biosciences NU-820-647P1) to GST-tagged KRAS-G12D (2-169, Reaction Biology, MSC-11-539) or to GST-tagged KRAS-G12V (2-169, Reaction Biology, MSC-11-540).
GST-tagged KRAS-G12D (2-169) and anti-GST MAb Tb Cryptate Gold (CisBio 61GSTTLB) were diluted into assay buffer (20 mM HEPES, pH 7.3, 150 mM NaCl, 5 mM MgCl2, 0.05% BSA 0.0025% NP40, 1 mM DTT) to prepare a 2.5× donor solution. 5× compound was added to the protein mixture and incubated for 1 h at RT. 2.5× acceptor solution containing SOSIcat (564-1049, Reaction Biology MSC-11-502) and GTP-DY-647P1 were then added to the donor KRAS mixture such that the final concentration of the reaction contained 5 nM GST-tagged KRAS-G12D (2-169), 20 nM SOScat, and 150 nM GTP. The reaction was monitored using at RT with the Envision multimode plate reader (Ex/Em 337/665, […]) up to 90 minutes at 5 minute intervals. To monitor KRAS-G12V Sos-mediated nucleotide exchange, 80 nM SOS was added to reaction instead of 20 nM. All other components were the same as previously described. Data was blanked to reactions without SOS1 and % inhibition was calculated such that DMSO only=0% and blank=100%. Curve fitting was done using a 4 parameter fit. Reported IC50 values were extracted at 30 min and 90 min for the KRAS-G12D and KRAS-G12V assays, respectively.
Curve fitting was done using a 4 parameter fit. NEA KRAS G12D IC50 (uM) values of selected compounds are depicted in Table 2 with compounds having a value <0.01 uM as ++++; >0.01 uM to 0.1 uM as +++; >0.1 uM to 1 uM as ++; >1 uM to 20 uM as +; and >20 uM as NA.

T2 sequence (P01116 2-169 isoform P01116-2 G12D): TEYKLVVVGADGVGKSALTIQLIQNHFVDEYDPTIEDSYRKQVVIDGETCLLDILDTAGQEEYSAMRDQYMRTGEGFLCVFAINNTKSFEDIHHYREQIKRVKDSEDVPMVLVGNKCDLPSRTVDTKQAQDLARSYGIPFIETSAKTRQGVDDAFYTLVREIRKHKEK
T1 sequence (P01116 with tags, fused parts or gaps isoform P01116-2 G12D): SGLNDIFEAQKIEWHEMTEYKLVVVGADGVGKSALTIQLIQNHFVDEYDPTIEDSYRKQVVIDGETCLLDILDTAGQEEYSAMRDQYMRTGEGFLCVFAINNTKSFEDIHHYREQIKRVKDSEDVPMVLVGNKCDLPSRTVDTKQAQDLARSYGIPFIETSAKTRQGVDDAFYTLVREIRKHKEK

Take `Oc1ccc2c(c1)-c1ccccc1C21CN(c2cc(N3C[C@H]4CC[C@@H](C3)N4)nc(OC[C@@]34CCCN3C[C@H](F)C4)n2)C1` [Compound 1, 1-[6-[(1R,5S)-3,8-diazabicyclo[3.2.1]octan-3-yl]-2-[[(2R,8S)-2-fluoro-1,2,3,5,6,7-hexahydropyrrolizin-8-yl]methoxy]pyrimidin-4-yl]spiro[azetidine-3,9′-fluorene]-3′-ol]: the concentration for half-maximal inhibition (IC50) in assay [1] (Table 2) is 10000 to 100000 nM; in assay [1] (Table 4), 10000 to 100000 nM; in assay [2] (Table 2), 100 to 1000 nM; in assay [2] (Table 4), 100 to 1000 nM.
As for `C[C@@]1(O)CCCN(c2nc(OC[C@@]34CCCN3C[C@H](F)C4)nc(N3CC4(CCc5sc(N)c(C#N)c54)C3)c2F)C1` [Compound 6, 2-amino-1′-[5-fluoro-2-[[(2R,8S)-2-fluoro-1,2,3,5,6,7-hexahydropyrrolizin-8-yl]methoxy]-6-[(3R)-3-hydroxy-3-methyl-1-piperidyl]pyrimidin-4-yl]spiro[5,6-dihydrocyclopenta[b]thiophene-4,3′-azetidine]-3-carbonitrile], the IC50 lay in the range of 10000 to 100000 nM in assay [1] (Table 4) and 100 to 1000 nM in assay [2] (Table 4).
For `CO/N=C(\C)c1nn2c(c1Cl)CN(c1nc(OC[C@@]34CCCN3C[C@H](F)C4)nc(N3CC4(CCc5sc(N)c(C#N)c54)C3)c1C#N)CCC2` [Compound 20, 2-amino-1′-[6-[3-chloro-2-[(E)-N-methoxy-C-methyl-carbonimidoyl]-4,6,7,8-tetrahydropyrazolo[1,5-a][1,4]diazepin-5-yl]-5-cyano-2-[[(2R,8S)-2-fluoro-1,2,3,5,6,7-hexahydropyrrolizin-8-yl]methoxy]pyrimidin-4-yl]spiro[5,6-dihydrocyclopenta[b]thiophene-4,3′-azetidine]-3-carbonitrile], in that order: 1000 to 10000 nM and below 10 nM.
For `N#Cc1c(N2C[C@H]3CC[C@@H](C2)N3)nc(OCC2(CN3CCC(F)CC3)CC2)nc1N1CC2(CCc3sc(N)c(C#N)c32)C1` [Compound 28, 2-amino-1′-[5-cyano-6-(3,8-diazabicyclo[3.2.1]octan-3-yl)-2-[[1-[(4-fluoro-1-piperidyl)methyl]cyclopropyl]methoxy]pyrimidin-4-yl]spiro[5,6-dihydrocyclopenta[b]thiophene-4,3′-azetidine]-3-carbonitrile], in that order: 100 to 1000 nM and 10 to 100 nM.
On to `N#Cc1c(N2CCC=CCC2)nc(OC[C@@]23CCCN2C[C@H](F)C3)nc1N1CC2(CCc3sc(N)c(C#N)c32)C1` [Compound 31, 2-amino-1′-[5-cyano-2-[[(2R,8S)-2-fluoro-1,2,3,5,6,7-hexahydropyrrolizin-8-yl]methoxy]-6-(2,3,6,7-tetrahydroazepin-1-yl)pyrimidin-4-yl]spiro[5,6-dihydrocyclopenta[b]thiophene-4,3′-azetidine]-3-carbonitrile], for which the figures for the IC50 in assay [1] (Table 4) and in assay [2] (Table 4) were 1000 to 10000 nM and 10 to 100 nM, respectively.
Regarding `CN(C)C(=O)c1nn2c(c1Cl)CN(c1nc(OC[C@@]34CCCN3C[C@H](F)C4)nc(N3CC4(C3)c3ccccc3CCC4(F)F)c1C#N)CCC2` [Compound 35, 3-chloro-5-[5-cyano-6-(2′,2′-difluorospiro[azetidine-3,1′-tetralin]-1-yl)-2-[[(2R,8S)-2-fluoro-1,2,3,5,6,7-hexahydropyrrolizin-8-yl]methoxy]pyrimidin-4-yl]-N,N-dimethyl-4,6,7,8-tetrahydropyrazolo[1,5-a][1,4]diazepine-2-carboxamide], the IC50 in assay [1] (Table 4) is above 100000 nM; in assay [2] (Table 4), 1000 to 20000 nM.
For `CN(C)C(=O)c1nn2c(c1Cl)CN(c1nc(OC[C@@]34CCCN3C[C@H](F)C4)nc(N3CC4(C3)C(=O)CCc3ccccc34)c1C#N)CCC2` [Compound 36, 3-chloro-5-[5-cyano-2-[[(2R,8S)-2-fluoro-1,2,3,5,6,7-hexahydropyrrolizin-8-yl]methoxy]-6-(2′-oxospiro[azetidine-3,1′-tetralin]-1-yl)pyrimidin-4-yl]-N,N-dimethyl-4,6,7,8-tetrahydropyrazolo[1,5-a][1,4]diazepine-2-carboxamide], in that order: above 100000 nM and 1000 to 20000 nM.
The matching figures for `CN(C)C(=O)c1nn2c(c1Cl)CN(c1nc(OC[C@@]34CCCN3C[C@H](F)C4)nc(N3CC4(C3)C(=O)Cc3ccccc34)c1C#N)CCC2` [Compound 37, 3-chloro-5-[5-cyano-2-[[(2R,8S)-2-fluoro-1,2,3,5,6,7-hexahydropyrrolizin-8-yl]methoxy]-6-(2′-oxospiro[azetidine-3,1′-indane]-1-yl)pyrimidin-4-yl]-N,N-dimethyl-4,6,7,8-tetrahydropyrazolo[1,5-a][1,4]diazepine-2-carboxamide]: above 100000 nM and above 20000 nM.
For `N#Cc1c(N2CCC(O)C(O)CC2)nc(OC[C@@]23CCCN2C[C@H](F)C3)nc1N1CC2(CCc3sc(N)c(C#N)c32)C1` (stereo partly drawn) [Compound 38, 2-amino-1′-[5-cyano-6-(4,5-dihydroxyazepan-1-yl)-2-[[(2R,8S)-2-fluoro-1,2,3,5,6,7-hexahydropyrrolizin-8-yl]methoxy]pyrimidin-4-yl]spiro[5,6-dihydrocyclopenta[b]thiophene-4,3′-azetidine]-3-carbonitrile], in that order: 1000 to 10000 nM and 10 to 100 nM.
